This passage reports pXC50, % of control and % of inhibition results from ChEMBL document CHEMBL5465560, “Selectivity Literature for EUbOPEN Chemogenomic Library” (2024).

Each structure is given as a SMILES string.

Test [1] has as its target Substance-P receptor (Homo sapiens) (UniProt P25103). As to the kind of experiment: Selectivity interaction (Panel of kinases, GPCRs, ion channels and transporters (enzymatic assay)) EUB0000266bCl TACR1.
For test [2], the target named is T1, Rhodopsin kinase GRK1 (Homo sapiens) (UniProt Q15835).
T1 sequence (whole entry): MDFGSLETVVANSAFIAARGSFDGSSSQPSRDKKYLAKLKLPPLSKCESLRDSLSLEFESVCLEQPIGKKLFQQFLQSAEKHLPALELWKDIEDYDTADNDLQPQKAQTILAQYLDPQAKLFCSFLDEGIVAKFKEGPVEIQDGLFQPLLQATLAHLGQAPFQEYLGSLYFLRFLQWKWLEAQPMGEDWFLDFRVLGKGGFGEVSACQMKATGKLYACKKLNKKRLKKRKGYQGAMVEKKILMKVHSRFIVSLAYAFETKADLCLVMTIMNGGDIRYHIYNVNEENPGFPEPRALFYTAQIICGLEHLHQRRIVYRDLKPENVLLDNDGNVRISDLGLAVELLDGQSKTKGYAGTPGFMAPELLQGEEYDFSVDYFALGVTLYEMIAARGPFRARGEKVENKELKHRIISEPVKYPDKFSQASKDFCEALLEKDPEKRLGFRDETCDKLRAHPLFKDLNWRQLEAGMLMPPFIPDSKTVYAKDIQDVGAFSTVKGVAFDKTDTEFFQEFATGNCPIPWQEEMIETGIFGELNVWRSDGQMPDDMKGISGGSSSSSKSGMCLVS
The test is described as follows: Selectivity interaction (KinomeScan (DiscoverX)) EUB0001079a GRK1. The conditions noted are these: at 1 µM.

For test [3], the target named is T2, Serine/threonine-protein kinase Sgk3 (Homo sapiens) (UniProt Q96BR1).
T2 sequence (whole entry): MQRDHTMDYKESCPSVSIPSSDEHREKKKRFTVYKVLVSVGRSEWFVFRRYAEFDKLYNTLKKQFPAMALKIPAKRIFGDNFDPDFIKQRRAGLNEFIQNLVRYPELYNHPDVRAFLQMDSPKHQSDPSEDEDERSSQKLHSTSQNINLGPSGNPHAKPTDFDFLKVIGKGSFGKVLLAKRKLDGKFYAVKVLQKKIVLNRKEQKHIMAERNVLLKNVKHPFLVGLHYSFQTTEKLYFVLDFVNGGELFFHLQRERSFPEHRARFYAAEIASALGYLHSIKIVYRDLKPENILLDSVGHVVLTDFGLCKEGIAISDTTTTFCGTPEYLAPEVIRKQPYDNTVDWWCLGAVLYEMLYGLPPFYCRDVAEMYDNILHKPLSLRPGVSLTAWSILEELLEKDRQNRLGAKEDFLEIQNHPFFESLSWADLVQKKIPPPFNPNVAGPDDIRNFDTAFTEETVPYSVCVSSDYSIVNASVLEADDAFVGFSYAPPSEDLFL
The test is described as follows: Selectivity interaction (KinomeScan (DiscoverX)) EUB0001049a SGK3. The conditions noted are these: at 1 µM.

Test [4] has as its target T3, Receptor-interacting serine/threonine-protein kinase 1 (Homo sapiens) (UniProt Q13546).
T3 sequence (whole entry): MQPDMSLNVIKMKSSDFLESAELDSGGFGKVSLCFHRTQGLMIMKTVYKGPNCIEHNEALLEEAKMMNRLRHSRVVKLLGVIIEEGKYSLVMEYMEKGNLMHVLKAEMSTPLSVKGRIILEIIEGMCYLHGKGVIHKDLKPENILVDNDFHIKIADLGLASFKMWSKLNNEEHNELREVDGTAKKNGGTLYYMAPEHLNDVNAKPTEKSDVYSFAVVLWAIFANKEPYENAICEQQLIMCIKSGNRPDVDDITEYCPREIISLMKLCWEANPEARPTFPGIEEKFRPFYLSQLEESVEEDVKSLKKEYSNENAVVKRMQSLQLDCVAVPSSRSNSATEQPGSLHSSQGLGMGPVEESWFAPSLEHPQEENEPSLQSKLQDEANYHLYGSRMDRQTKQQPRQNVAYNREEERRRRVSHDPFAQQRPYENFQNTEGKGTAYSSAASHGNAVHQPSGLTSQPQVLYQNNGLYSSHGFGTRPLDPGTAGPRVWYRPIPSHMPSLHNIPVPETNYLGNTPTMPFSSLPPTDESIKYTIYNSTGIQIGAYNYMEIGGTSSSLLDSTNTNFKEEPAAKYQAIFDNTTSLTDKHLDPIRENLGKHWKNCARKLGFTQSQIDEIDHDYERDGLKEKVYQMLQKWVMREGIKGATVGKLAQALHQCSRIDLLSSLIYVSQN
The test is described as follows: Selectivity interaction (Kinase panel (Eurofins)) EUB0001564a RIPK1. The conditions noted are these: at 1 µM.

For test [5], the target named is T4, Muscarinic acetylcholine receptor M2 (Homo sapiens) (UniProt P08172).
T4 sequence (whole entry): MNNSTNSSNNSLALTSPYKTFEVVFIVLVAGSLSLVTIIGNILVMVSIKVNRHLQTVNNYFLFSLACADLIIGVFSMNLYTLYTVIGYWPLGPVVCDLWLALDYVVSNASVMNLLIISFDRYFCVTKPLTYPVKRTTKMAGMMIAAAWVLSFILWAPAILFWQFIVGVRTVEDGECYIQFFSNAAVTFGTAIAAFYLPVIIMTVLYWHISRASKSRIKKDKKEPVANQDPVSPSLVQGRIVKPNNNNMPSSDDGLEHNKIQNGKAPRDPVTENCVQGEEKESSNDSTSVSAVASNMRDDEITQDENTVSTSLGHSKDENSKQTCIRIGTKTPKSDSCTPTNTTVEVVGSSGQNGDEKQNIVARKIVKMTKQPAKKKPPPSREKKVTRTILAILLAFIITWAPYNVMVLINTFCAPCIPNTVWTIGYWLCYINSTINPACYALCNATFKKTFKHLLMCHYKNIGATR
As to the kind of experiment: Selectivity interaction (Panel of kinases, GPCRs, ion channels and transporters (enzymatic assay)) EUB0000223bCl CHRM2.

The target in test [6] is Cyclin-dependent kinase 18 (Homo sapiens) (UniProt Q07002). As to the kind of experiment: Selectivity interaction (KinomeScan (DiscoverX)) EUB0000595a CDK18. The conditions noted are these: at 10 µM.
Sequence of Cyclin-dependent kinase 18 (Homo sapiens) (Q07002 whole entry): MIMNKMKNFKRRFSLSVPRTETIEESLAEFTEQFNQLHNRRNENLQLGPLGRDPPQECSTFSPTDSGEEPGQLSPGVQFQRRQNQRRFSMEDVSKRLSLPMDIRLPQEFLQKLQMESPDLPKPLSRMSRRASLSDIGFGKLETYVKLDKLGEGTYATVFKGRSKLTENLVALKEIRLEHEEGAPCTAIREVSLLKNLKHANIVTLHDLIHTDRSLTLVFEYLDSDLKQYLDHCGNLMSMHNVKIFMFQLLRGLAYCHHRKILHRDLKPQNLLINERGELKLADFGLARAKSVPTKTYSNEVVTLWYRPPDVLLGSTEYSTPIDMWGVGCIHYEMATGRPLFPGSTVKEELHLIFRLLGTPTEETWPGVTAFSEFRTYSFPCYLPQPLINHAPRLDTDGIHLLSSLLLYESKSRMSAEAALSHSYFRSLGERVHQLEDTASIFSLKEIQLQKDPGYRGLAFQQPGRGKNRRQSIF
Test [7] concerns the target T5, Calcium/calmodulin-dependent protein kinase type IV (Homo sapiens) (UniProt Q16566).
T5 sequence (whole entry): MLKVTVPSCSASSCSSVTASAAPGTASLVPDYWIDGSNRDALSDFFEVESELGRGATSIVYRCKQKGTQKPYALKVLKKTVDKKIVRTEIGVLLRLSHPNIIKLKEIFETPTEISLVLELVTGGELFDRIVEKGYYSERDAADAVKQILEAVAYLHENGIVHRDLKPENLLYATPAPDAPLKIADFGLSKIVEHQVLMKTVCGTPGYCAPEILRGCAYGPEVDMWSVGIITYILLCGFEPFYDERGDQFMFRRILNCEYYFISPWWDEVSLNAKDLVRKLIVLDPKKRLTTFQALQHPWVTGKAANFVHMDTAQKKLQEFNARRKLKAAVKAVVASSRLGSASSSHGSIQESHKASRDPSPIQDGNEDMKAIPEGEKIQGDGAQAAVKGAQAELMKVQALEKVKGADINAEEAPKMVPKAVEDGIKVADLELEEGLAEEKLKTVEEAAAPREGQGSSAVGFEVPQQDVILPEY
As to the kind of experiment: Selectivity interaction (KinomeScan (DiscoverX)) EUB0000618a CAMK4. The conditions noted are these: at 10 µM.

Sequence of Substance-P receptor (Homo sapiens) (P25103 whole entry): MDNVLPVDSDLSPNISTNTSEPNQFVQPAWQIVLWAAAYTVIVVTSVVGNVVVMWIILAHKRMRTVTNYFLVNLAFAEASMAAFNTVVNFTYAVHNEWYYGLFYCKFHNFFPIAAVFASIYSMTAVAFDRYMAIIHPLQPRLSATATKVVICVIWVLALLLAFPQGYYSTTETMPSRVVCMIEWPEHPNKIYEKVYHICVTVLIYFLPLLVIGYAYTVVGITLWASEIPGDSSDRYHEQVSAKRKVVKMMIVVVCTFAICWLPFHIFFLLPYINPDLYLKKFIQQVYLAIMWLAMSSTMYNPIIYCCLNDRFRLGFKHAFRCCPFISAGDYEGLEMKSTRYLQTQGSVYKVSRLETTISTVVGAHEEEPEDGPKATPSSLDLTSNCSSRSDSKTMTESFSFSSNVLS

As to `CCn1c(-c2nc3cc(C(=O)N4CCCC(N)C4)ccc3n2C)cc2ccccc21` (configuration not stated), the pXC50 in test [1] is less than 4.4 M.

`Nc1cnc(N2CCc3cc(S(=O)(=O)Nc4c(F)cc(Cl)cc4F)cc(N4CCCC4=O)c32)nc1` [TP-020n] yielded a % of control in test [2] of 100%.

The compound `COc1cc(Nc2nc(C)cc(-c3cnn4nc(OC)ccc34)n2)cc(C(F)(F)F)c1` gave a % of control in test [3] of 74%.

For `CC[C@@H](Nc1c(C#N)c(-c2ccc(-c3cccc(C)c3F)cc2)nc2cnccc12)C(=O)O` [BAY-091], in test [4], the % of inhibition stood at 21.2%.

The compound `COc1cc(C(=O)N2CC[C@@H](O)[C@@H](N)C2)cc2nc(-c3cc4ccccc4n3CC3CC3)n(C)c12` had a pXC50 in test [5] of less than 4.8 M.

In test [6], `COCC(=O)NC/C=C/c1ccc2ncnc(Nc3ccc(Oc4ccc(C)nc4)c(C)c3)c2c1` [CP-724714] returned a % of control of 99%.

Take `O[C@H]1CC[C@H](Nc2ncc3nc(Nc4c(F)cc(F)cc4F)n([C@H]4CCOC4)c3n2)CC1`: the % of control in test [7] was determined as 87%.
